Literature values as cited in EP0134290A1, “Constant release rate solid dosage theophyllineformulation” (VEREX LABORATORIES, INC., priority 1983, dated 1985).

Conditions: similar dose of regular theophylline; published; spread +- 2.1

SMILES: Cn1c(=O)c2[nH]cnc2n(C)c1=O [regular theophylline, theophylline]
- excretion half life: 9.0 h
